Experiments:
[1] = tested on: ischemic heart isolated from white rat; test: Cardioprotective effect on isolated ischemic rat heart (Langendorff, 30 min global ischemia / 30 min reperfusion); settings: 10 μM; for LDH (concentration of lactate dehydogenase): after 30 min reperfusion; for EDP (left ventricular end diastolic pressure): after reperfusion, baseline set at 5 mmHg; for LVDP × HR (left ventricular developed pressure × heart rate): reperfusion DP as % of pre-treatment DP, 30 min after reperfusion
Procedure: 100 mg/kg of sodium pentobarbital was injected in abdominal cavity of white male rats (300˜450 g, obtained form the experimental animal team of the Korea Research Institute of Chemical Technology) to anesthetize them. Then, an intravenous injection of 1000 U/kg of heparin was performed before taking out heart. Particularly, cannula(PE 240) was inserted in the trachea, and artificial respiration was tried upon the rat by using a rodent ventilator. Under that condition, aortic cannula was inserted in the aorta and heart was taken out under retrograde perfusion. The extracted heart was hung on Langendorff apparatus quickly and unnecessary tissues on heart were removed. Perfusion was induced under static pressure (85 mmHg) with 37° C. modified Krebs-Henseleit bicarbonate buffer (composition <mM/L>: 116 NaCl, 4.7 KCl, 1.1 MgSO4, 1.17 KH2PO4, 24.9 NaHCO3, 2.52 CaCl2, 8.32 Glucose, 2.0 Pyruvate) saturated with 95% O2/5% CO2. A metal cannula, to which a latex balloon filled with an ethanol-distilled water mixture (1:1 vol/vol) was linked, was inserted in left ventricle through pulmonary vein. Then, left ventricular pressure transmitted through the balloon was transduced by using pressure transducer, and amplified by using Plugsys bridge amplifier isovolumetrically. Then, the pressure was recorded in a recorder (Linearcorder mark 8 WR 3500). Thereafter, heart was stabilized for 15 minutes. Then, left ventricular end diastolic pressure (LVEDP) was given by 5 mmHg and such volume of the balloon was kept all through the experiments.
Baseline cardiac contractile function, heart rate (HR), and coronary flow (CF) were measured. Cardiac contractile function was calculated by […], yielding LVDP (left ventricular developed pressure). Double product RPP (rate-pressure product)(DP), another important parameter for indirectly assessing cardiac performance in Langendorff heart, whose cardiac output could not be measured ordinarily, was calculated by multiplying HR by LVDP. Throughout the experiment, total coronary blood flow was measured by the use of coronary flow probe (diameter: 1.0 mm) installed in aortic cannula with electromagnetic flowmeter. Temperature of heart was steadily maintained by immersing the heart at 37° C. in physiological saline solution to which 95% O2/5% CO2 was constantly supplied. After stabilization for 15 min, the hearts were pre-treated for 10 min with vehicle (0.04% DMSO) only or a compound of the present invention or the control material in the vehicle. Thereafter, cardiac contractile function, HR and CF were repeatedly measured. Global ischemia was induced by completely shutting off the perfusate for 30 min. Severity of ischemia was determined as the time to contracture (TTC, min) during global ischemia in which the first 5 mmHg increase in EDP was observed. Then, the hearts were reperfused and, 30 min later, contractile functions (LVDP, HR and CF) were repeatedly measured. After reperfusion was accomplished for 30 min, LDH (lactate dehydrogenase) was measured with a kit as a sensitive index for loss of cell viability.

[2] = tested on: ischemic myocardial injury models prepared from white rats; test: Antiischemic activity in the anesthetized rat ischemic myocardial injury model (coronary occlusion 45 min / reperfusion 90 min); type: in vivo; settings: 0.3 mg/kg, intravenous (femoral vein), 30 min before occlusion
Procedure: 75 mg/kg of sodium pentobarbital was injected in abdominal cavity of white male rats (350-450 g, Laboratory Animal Division, Korea Research Institute of Chemical Technology) to anesthetize them. After performing tracheotomy, artificial respiration was induced by 10 ml/kg of stroke volume and 60/min. of heart rate. Cannula was inserted in each of vena fermoralis and aorta fermoralis, through which medicines were administered and blood pressure was measured. In the meantime, since body temperature in a ischemic myocardial injury model was very important factor, directly influencing a result, the temperature of a rat was always kept at 37° C. by using a probe for measuring body temperature inserted in rectum and homeothermic blanket control unit. Mean arterial blood pressure and heart rate (HR) of the rat were measured all through the experiments. Statham P23XL pressure transducer (Grass Ins., MA., USA) was used for measuring blood pressure and ECG/RATE Coupler (Hugo Sachs Electronic, Germany) was used for measuring HR. In addition, all the changes were recorded successively by graphtec linearcorder chart recorder (Graphtec Linearcorder WR 3310, Hugo Sachs Electronic).
According to the method of Selye H, left coronary aorta was occluded as follows. Left thoracotomy was induced. That is, the chest of a rat was a little opened. The right chest of the anesthetized rat was pressurized by the middle finger of left hand, so that the heart was pushed out. The heart was fixed gently by the thumb and the index finger of the left hand. A stitch was carefully put on a part including left anterior descending coronary artery by a suture needle with operating thread (5-0 silk ligature), and the heart was quickly positioned again in thoracic cavity. Then, both ends of operating thread were exposed outside. Both ends of operating thread were passed through PE tube (PE100, 2.5 cm) and left for 20 minutes for stabilization. A vehicle or a medicine was administered through the cannula inserted in femoral vein, which was left for 30 minutes in order for the medicine to work thoroughly. BMS-180448 was used for a control group and the dosage of each test medicine and a control medicine was 0.3 mg/kg each. […]
The coronary artery was reoccluded according to the above method and 2 ml of 1% Evans blue solution was administered by intravenous injection. […] The surface of each slice was inputted in a computer by using Hi-scope, a compact micro vision system, and Image pro plus program, from which both normal blood flow tissue area stained by blue and non-stained area on each slice were measured. The ratio of non-stained area to the gross area of each slice was calculated, by which the weight of each slice was multiplied to calculate AAR (area at risk) of each slice. […]

[3] = during 30 min global ischemia, first 5 mmHg increase in EDP

| SMILES | LDH (concentration of lactate dehydogenase) [1] [unit/g] | EDP (left ventricular end diastolic pressure) [1] [mmHg] | TTC (time to induce contraction / time to contracture) [1, 3] [min] | LVDP × HR (left ventricular developed pressure × heart rate) [1] [%] | IZ/AAR(%) myocardial infarction size to area at risk [2] [%] | TTC (time to induce contraction / time to contracture) [1] [min] |
| --- | --- | --- | --- | --- | --- | --- |
| COC(OC)[C@]1(C)Oc2ccc([N+](=O)[O-])cc2[C@H](n2c(=S)oc3ccc(Cl)cc32)[C@H]1O [Example 7, (2R,3R,4S)-6-nitro-3,4-dihydro-3-hydroxy-2-dimethoxymethyl-2-methyl-4-(5-chloro-2-thioxobenzoxazol-3-yl)-2H-1-benzopyran] | 21.1 | 23.3 | 25.6 | 59.4 |  |  |
| COC(OC)[C@]1(C)Oc2ccc([N+](=O)[O-])cc2[C@@H](n2c(=S)oc3ccccc32)[C@@H]1O [Example 2, (2R,3S,4R)-6-nitro-3,4-dihydro-3-hydroxy-2-dimethoxymethyl-2-methyl-4-(2-thioxobenzoxazol-3-yl)-2H-1-benzopyran] | 17.9 | 29.3 | 24.4 | 57.6 |  |  |
| COC(OC)[C@]1(C)Oc2ccc([N+](=O)[O-])cc2[C@H](n2c(=S)oc3cccc(C)c32)[C@H]1O [Example 6, (2R,3R,4S)-6-nitro-3,4-dihydro-3-hydroxy-2-dimethoxymethyl-2-methyl-4-(4-methyl-2-thioxobenzoxazol-3-yl)-2H-1-benzopyran] | 9.6 | 6.3 | 26.7 | 74.3 | 42.5 |  |
| COc1ccc2oc(=S)n([C@H]3c4cc([N+](=O)[O-])ccc4O[C@@](C)(C(OC)OC)[C@@H]3O)c2c1 [Example 10, (2R,3R,4S)-6-nitro-3,4-dihydro-3-hydroxy-2-dimethoxymethyl-2-methyl-4-(5-methoxy-2-thioxobenzoxazol-3-yl)-2H-1-benzopyran] | 17.3 | 36.7 | 24.4 | 54.2 | 46.6 |  |
| COC(OC)[C@]1(C)Oc2ccc(NC(=O)C(F)(F)F)cc2[C@H](n2c(=S)oc3ccccc32)[C@H]1O [Example 36, (2R,3R,4S)-6-trifluoroacetylamino-3,4-dihydro-3-hydroxy-2-dimethoxymethyl-2-methyl-4-(2-thioxobenzoxazol-3-yl)-2H-1-benzopyran] |  | 27.3 | 24.9 | 48.4 |  |  |
| COC(OC)[C@@]1(C)Oc2ccc([N+](=O)[O-])cc2[C@H](n2c(=S)oc3ccccc32)[C@H]1O [Example 3, (2S,3R,4S)-6-nitro-3,4-dihydro-3-hydroxy-2-dimethoxymethyl-2-methyl-4-(2-thioxobenzoxazol-3-yl)-2H-1-benzopyran] | 12.6 | 15.3 | 26.6 | 66.8 |  |  |
| COC(OC)[C@]1(C)Oc2ccc(N)cc2[C@@H](n2c(=S)oc3ccccc32)[C@@H]1O [Example 20, (2R,3S,4R)-6-amino-3,4-dihydro-3-hydroxy-2-dimethoxymethyl-2-methyl-4-(2-thioxobenzoxazol-3-yl)-2H-1-benzopyran] | 3.9 | 43.3 | 21.3 | 42.0 |  |  |
| COC(OC)[C@]1(C)Oc2ccc([N+](=O)[O-])cc2[C@H](n2c(=S)oc3cc(C)ccc32)[C@H]1O [Example 5, (2R,3R,4S)-6-nitro-3,4-dihydro-3-hydroxy-2-dimethoxymethyl-2-methyl-4-(6-methyl-2-thioxobenzoxazol-3-yl)-2H-1-benzopyran] | 20.2 | 21.0 | 29.0 | 47.4 |  |  |
| COC(OC)[C@]1(C)Oc2ccc([N+](=O)[O-])cc2[C@H](n2c(=S)oc3ccc(C(F)(F)F)cc32)[C@H]1O [Example 16, (2R,3R,4S)-6-nitro-3,4-dihydro-3-hydroxy-2-dimethoxymethyl-2-methyl-4-(5-trifluoromethyl-2-thioxobenzoxazol-3-yl)-2H-1-benzopyran] |  | 13.3 | 26.5 | 79.3 |  |  |
| COC(OC)[C@]1(C)Oc2ccc([N+](=O)[O-])cc2[C@H](n2c(=S)oc3cc([N+](=O)[O-])ccc32)[C@H]1O [Example 9, (2R,3R,4S)-6-nitro-3,4-dihydro-3-hydroxy-2-dimethoxymethyl-2-methyl-4-(6-nitro-2-thioxobenzoxazol-3-yl)-2H-1-benzopyran] | 30.1 | 27.0 |  | 61.1 |  | 23.5 |
| COC(OC)[C@]1(C)Oc2ccc([N+](=O)[O-])cc2[C@H](n2c(=S)oc3ccccc32)[C@H]1O [Example 1, (2R,3R,4S)-6-nitro-3,4-dihydro-3-hydroxy-2-dimethoxymethyl-2-methyl-4-(2-thioxobenzoxazol-3-yl)-2H-1-benzopyran] | 4.6 | 19.8 | 25.3 | 53.8 | 39.6 |  |
